This test concerns T1, laccase cocktail (LacI/LacII) from Pycnoporus sanguineus CS43.
T1 construct: gene Lac I; native secreted enzymes
As to the kind of experiment: transformation rates at varied EDC concentration, Michaelis-Menten fit (HPLC-UV). The format is biochemical, Trametes sanguinea. The following applies: free laccase cocktail (two isoforms), 100 U/L, pH 5 McIlvaine buffer, 25 °C, no mediator, read-out: Catalytic parameters / K m /. An excerpt: transformation rates at varied EDC concentration, Michaelis-Menten fit (HPLC-UV) on laccase cocktail (LacI/LacII) from Pycnoporus sanguineus CS43

Read-outs that look alike come from different tables or passages of the source.

Consider `CC(C)(c1ccc(O)cc1)c1ccc(O)cc1` [BPA, bisphenol A], for which, for the setting “called Kapp in the text”, the Km is 482 µM.
For `C#C[C@]1(O)CC[C@H]2[C@@H]3CCc4cc(O)ccc4[C@H]3CC[C@@]21C` [EE2, 17-α-ethynylestradiol], where the note is “apparent Km”, the Km came to 32 µM.
As to `CCCCCCCCCc1ccc(O)cc1` [NP, 4-nonylphenol], the Km (apparent Km) worked out at 73.6 µM.
With `Oc1cc(Cl)ccc1Oc1ccc(Cl)cc1Cl` [TCS, triclosan], under “apparent Km”, the Km was 302 µM.

The values above are taken from PMC4498228, “Biotransformation of Endocrine-Disrupting Compounds in Groundwater: Bisphenol A, Nonylphenol, Ethynylestradiol and Triclosan by a Laccase Cocktail from Pycnoporus sanguineus CS43” (Water, Air, and Soil Pollution, 2015).
